In patent US11466006B2, “Dual selective PI3 delta and gamma kinase inhibitors” (Rhizen Pharmaceuticals SA, priority 2013, dated 2022):

Tests used:
Pi3K β = target: T1, Pi3K β (Homo sapiens, UniProt P42338); assay: Fluorescent (HTRF) determination of PI3 kinase enzyme activity, beta isoform; format: biochemical; conditions: Table 1, HTRF
T1 construct: purchased Millipore (assay kit)
Description: Phosphoinositide 3 kinases (PI3K) belong to a class of lipid kinases that play a critical role in the regulation of several key cellular processes. The PI3K are capable of phosphorylating the 3-hydroxy position of phosphoinositols thereby generating second messengers involved in downstream signalling events. The homogenous time resolved fluorescence (HTRF) assay allows detection of 3,4,5-triphosphate (PIP3) formed as a result of phosphorylation of phosphotidylinositol 4,5-biphosphate (PIP2) by PI3K isoforms such as α, β, γ or δ.
PI3K isoform activity for α, β, γ or δ was determined using a PI3K human HTRF™ Assay Kit (Millipore, Billerica, Mass.) with modifications. All incubations were carried out at room temperature. Briefly, 0.5 μl of 40× inhibitor (in 100% DMSO) or 100% DMSO were added to each well of a 384-well white plate (Greiner Bio-One, Monroe, N.C.) containing 14.5 μl 1× reaction buffer /PIP2 (10 mM MgCl2, 5 mM DTT, 1.38 μM PIP2) mix with or without enzyme, followed by 5 μl/well of 400 μM ATP and incubated for an additional 30 minutes. Reaction was terminated by adding 5 μl/well stop solution (Millipore, Billerica, Mass.). […] HRTF ratio was measured on a microplate reader (BMG Labtech., Germany) at an excitation wavelength of 337 nm and emission wavelengths of 665 and 615 nm with an integration time of 400 msec counting delay of 50 msec.

male Balb/c mice = assay: Acute cigarette smoke induced cell infiltration in male Balb/c mice; format: in vivo, mouse; conditions: 0.3, 1, or 3 mg/kg/BID, cigarette smoke exposed mice
Description: Animals (male Balb/c mice) are to be acclimatized for seven days prior to the start of the experiment. Animals are then to be randomly distributed to various groups based on their body weights. On day 1, mice is to be administered test compound or vehicle by oral/intranasal route and after 1 hr test compound administration animals are to be placed in whole body exposure box. On day 1 and d2 mice are exposed to the mainstream smoke of 6 cigarettes and of 8 cigarettes on day 3, and of 10 cigarettes on day 4. […] The total number of white blood cells is to be determined in BAL fluid and blood using a blood cell counter and adjusted to 1×10^6 cell/ml. Differential cell count is calculated manually. […] The number of each cell type among 300 white blood cells in the cell smear are to be determined and expressed as a percentage, and the number of neutrophils and macrophages in each BAL fluid are to be calculated. • Results: As depicted in FIGS. 7A and 7B, Compound A1 reduced macrophages and neutrophil infiltration into BALF thereby indicating a therapeutic role in chronic obstructive pulmonary diseases Assay 16: Ovalbumin-Induced Nasal Eosinophil and Neutrophil Accumulation in Mice

T1 sequence (P42338 whole entry, canonical isoform): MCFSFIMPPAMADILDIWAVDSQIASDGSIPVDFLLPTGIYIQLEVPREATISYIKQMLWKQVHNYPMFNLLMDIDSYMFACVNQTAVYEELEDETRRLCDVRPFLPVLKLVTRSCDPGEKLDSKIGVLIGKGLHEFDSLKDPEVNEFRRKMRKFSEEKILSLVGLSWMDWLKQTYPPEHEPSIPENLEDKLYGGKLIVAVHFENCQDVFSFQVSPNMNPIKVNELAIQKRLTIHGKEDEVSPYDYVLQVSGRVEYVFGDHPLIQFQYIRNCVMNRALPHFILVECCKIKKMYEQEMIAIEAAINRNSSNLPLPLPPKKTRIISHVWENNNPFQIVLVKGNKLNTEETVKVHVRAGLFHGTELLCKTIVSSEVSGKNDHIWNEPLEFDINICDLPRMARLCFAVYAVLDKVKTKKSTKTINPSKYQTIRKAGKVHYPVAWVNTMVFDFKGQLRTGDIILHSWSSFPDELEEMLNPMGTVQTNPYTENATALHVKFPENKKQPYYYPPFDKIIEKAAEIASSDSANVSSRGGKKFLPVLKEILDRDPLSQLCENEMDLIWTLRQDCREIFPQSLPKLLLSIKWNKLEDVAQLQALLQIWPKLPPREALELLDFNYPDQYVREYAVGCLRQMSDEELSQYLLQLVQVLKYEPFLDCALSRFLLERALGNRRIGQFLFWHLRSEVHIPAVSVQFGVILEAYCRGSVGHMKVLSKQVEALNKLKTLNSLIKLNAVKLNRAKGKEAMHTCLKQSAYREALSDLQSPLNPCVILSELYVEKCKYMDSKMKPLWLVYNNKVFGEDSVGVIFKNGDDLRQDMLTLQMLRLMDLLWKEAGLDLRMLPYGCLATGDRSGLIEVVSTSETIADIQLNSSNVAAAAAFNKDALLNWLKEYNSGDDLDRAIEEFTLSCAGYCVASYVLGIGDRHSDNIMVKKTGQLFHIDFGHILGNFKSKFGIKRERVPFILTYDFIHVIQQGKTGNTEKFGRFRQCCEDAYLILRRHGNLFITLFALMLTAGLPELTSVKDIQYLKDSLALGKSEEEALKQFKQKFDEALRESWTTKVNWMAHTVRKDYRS
T1 sequence (P27986 whole entry partner, canonical isoform): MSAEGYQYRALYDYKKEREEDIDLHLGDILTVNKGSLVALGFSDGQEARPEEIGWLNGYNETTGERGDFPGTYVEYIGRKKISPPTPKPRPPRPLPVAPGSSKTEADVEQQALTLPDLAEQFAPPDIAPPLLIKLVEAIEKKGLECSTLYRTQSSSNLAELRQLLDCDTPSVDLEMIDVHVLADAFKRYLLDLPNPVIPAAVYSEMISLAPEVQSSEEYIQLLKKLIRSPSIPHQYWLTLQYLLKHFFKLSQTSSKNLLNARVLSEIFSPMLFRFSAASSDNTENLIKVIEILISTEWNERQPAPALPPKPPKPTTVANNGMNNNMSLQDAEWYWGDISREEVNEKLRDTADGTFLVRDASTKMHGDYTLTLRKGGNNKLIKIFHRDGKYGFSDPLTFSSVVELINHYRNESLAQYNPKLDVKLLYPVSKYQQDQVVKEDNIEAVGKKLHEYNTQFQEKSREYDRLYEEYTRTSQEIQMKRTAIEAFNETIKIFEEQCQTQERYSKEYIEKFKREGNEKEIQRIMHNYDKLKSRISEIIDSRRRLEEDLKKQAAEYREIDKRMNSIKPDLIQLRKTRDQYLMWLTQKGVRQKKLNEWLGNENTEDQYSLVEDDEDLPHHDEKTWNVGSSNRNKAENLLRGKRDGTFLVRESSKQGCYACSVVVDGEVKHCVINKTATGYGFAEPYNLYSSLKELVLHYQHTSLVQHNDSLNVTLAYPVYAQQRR

Q: For `CC[C@H](Nc1ncnc2[nH]cnc12)c1oc2ccccc2c(=O)c1-c1cccc(F)c1` [Compound A1, (S)-2-(1-(9H-purin-6-ylamino)propyl)-3-(3-fluorophenyl)-4H-chromen-4-one], which IC50 (Pi3K β) is on record?
A: > 4000 nM

Q: And the “macrophages and neutrophil infiltration into BALF” value (male Balb/c mice)?
A: reduced
